Assay results: US9636418B2 (priority 2013, dated 2017)
Like-named read-outs stand apart in the source and are kept apart here.

How the values were obtained:
Test in all cases: cell-based
hNav1.4 = hNav1.4 (Homo sapiens, UniProt P35499); settings: for IC50: PatchXpress, read-out: PX hNav1.4 Tonic IC50
hNav1.7 = hNav1.7 (Homo sapiens, UniProt Q15858); format: cell-based; settings: PatchXpress, read-out: PX hNav1.7 Tonic IC50
hNav1.5 = hNav1.5 (Homo sapiens, UniProt Q14524); settings: for IC50: PatchXpress, read-out: PX hNav1.5 Tonic IC50
[1] = * = at high concentrations compound would wash off slowly or not at all

Chain of hNav1.4 (P35499 whole entry): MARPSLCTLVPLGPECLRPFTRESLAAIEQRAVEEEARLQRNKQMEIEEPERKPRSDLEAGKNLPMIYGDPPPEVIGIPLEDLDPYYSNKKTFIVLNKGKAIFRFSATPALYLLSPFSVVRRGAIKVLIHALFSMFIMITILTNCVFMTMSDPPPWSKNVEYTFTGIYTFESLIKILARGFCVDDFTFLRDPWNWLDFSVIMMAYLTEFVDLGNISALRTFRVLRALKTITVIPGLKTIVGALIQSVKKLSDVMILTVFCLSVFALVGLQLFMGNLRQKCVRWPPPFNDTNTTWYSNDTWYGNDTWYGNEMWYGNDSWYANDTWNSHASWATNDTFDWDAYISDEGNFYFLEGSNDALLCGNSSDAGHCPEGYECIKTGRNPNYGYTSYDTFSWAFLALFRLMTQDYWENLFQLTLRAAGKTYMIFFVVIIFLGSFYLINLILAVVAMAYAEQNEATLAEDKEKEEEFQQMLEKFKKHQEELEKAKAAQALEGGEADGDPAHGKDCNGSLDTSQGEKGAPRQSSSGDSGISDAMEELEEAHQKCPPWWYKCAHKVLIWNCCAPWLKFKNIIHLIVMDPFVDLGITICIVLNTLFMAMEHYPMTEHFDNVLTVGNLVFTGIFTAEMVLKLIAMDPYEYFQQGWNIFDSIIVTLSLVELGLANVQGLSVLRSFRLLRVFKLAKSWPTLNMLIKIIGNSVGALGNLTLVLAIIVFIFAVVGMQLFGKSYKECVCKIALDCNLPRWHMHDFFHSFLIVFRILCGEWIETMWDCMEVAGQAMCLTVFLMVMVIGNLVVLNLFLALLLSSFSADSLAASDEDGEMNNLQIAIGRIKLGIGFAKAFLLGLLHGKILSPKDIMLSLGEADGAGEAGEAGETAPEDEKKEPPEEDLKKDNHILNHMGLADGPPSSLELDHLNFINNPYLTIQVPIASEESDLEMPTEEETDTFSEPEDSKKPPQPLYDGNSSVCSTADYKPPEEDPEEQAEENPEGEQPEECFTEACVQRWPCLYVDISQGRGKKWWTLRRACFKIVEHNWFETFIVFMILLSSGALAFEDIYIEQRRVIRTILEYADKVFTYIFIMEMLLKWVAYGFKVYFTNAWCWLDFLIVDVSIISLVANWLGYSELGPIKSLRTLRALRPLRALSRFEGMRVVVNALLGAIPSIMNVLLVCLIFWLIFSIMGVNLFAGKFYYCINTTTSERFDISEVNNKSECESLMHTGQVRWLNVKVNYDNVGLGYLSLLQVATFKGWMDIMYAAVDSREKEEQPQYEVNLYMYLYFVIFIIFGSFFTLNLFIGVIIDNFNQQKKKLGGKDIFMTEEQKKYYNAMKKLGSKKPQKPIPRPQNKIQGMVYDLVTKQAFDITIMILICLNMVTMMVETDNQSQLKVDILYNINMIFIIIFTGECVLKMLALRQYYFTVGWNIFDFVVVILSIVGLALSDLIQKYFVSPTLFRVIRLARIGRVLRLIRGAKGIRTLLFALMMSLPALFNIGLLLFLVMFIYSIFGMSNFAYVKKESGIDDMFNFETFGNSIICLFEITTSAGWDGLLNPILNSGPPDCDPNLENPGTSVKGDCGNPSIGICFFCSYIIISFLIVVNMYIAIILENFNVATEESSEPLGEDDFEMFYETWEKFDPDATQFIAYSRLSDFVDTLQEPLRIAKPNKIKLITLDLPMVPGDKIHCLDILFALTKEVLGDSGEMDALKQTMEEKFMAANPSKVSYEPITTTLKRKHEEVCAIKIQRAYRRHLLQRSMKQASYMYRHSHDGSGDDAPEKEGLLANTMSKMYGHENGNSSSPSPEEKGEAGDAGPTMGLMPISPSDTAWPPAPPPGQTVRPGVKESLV
Chain of hNav1.5 (Q14524 whole entry): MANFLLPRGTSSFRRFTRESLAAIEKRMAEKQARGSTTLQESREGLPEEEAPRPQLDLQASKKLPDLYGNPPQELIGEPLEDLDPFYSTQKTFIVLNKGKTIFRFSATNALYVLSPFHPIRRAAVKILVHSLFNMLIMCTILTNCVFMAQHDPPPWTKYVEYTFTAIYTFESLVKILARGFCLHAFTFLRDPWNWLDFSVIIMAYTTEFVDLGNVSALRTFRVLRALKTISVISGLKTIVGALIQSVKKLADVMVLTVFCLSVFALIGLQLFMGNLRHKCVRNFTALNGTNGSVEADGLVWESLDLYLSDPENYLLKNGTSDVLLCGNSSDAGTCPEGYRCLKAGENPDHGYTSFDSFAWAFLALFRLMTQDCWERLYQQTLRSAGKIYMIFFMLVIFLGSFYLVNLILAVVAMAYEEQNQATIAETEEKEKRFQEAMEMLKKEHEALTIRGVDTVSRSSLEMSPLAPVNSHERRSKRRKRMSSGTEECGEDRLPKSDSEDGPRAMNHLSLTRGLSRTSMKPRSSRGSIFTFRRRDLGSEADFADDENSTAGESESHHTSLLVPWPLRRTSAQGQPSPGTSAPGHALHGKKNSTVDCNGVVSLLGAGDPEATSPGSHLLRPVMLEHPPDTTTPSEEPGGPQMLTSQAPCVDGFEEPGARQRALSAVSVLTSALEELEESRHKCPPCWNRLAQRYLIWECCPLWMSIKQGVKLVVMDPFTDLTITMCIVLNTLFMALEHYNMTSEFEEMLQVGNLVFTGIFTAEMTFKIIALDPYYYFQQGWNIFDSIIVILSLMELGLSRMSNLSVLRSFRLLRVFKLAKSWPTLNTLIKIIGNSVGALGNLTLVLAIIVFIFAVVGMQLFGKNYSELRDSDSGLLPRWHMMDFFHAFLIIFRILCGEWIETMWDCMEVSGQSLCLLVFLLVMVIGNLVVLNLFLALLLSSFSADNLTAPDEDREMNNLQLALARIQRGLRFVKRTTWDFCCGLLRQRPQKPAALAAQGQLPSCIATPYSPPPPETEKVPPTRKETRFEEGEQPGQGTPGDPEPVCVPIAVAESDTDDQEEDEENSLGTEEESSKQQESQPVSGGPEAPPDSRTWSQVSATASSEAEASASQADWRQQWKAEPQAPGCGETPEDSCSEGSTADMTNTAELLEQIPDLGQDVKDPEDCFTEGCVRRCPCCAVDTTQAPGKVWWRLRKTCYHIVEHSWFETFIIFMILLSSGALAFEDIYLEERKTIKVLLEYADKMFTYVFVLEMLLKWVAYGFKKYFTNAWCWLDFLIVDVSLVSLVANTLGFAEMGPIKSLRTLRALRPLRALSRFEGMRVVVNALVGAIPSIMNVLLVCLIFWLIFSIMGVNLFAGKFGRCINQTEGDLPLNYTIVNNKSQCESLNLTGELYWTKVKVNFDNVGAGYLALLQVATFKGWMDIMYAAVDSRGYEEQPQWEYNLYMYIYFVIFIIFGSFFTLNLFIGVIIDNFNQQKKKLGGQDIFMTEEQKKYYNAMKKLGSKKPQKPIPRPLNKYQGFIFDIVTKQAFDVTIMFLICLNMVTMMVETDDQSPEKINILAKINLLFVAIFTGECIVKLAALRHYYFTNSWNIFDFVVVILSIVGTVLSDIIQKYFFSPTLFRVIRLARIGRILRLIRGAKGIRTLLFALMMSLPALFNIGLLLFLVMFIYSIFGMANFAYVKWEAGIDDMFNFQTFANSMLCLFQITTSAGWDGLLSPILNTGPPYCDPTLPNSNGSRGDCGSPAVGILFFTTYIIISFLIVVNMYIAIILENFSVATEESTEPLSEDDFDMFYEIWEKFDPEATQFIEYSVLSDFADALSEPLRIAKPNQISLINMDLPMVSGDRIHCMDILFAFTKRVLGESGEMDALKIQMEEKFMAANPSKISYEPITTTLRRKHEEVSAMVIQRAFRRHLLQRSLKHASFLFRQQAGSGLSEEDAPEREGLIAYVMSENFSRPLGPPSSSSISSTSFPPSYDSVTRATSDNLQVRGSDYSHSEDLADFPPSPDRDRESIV

| SMILES | IC50 (hNav1.4; [1]) [nM] | Nav1.4/Nav1.7 (hNav1.4; ratio of PX IC50 values) | IC50 (hNav1.7; [1]) [nM] | IC50 (hNav1.5; [1]) [nM] | IC50 (hNav1.4; tonic block) [nM] | IC50 (hNav1.7; tonic block) [nM] | IC50 (hNav1.5; tonic block) [nM] | Nav1.5/Nav1.7 (hNav1.5; ratio of PX IC50 values) | Nav1.4/Nav1.7 (hNav1.4; ratio of PX tonic IC50 values) |
| --- | --- | --- | --- | --- | --- | --- | --- | --- | --- |
| CCCC[C@@H]1NC(=O)[C@H](Cc2c[nH]c3ccccc23)NC(=O)[C@H](CCCCN)NC(=O)[C@H](CCC(N)=O)NC(=O)[C@@H](NC(=O)[C@H](Cc2ccc(O)cc2)NC(=O)[C@H](N)Cc2ccccc2)CSSC[C@@H]2NC(=O)[C@@H]3CSSC[C@@H](C(=O)N[C@@H](CCCNC(=N)N)C(=O)N[C@@H](CCCCN)C(=O)N[C@H](C(=O)N[C@H](C(N)=O)[C@@H](C)CC)[C@@H](C)CC)NC(=O)[C@H](Cc4c[nH]c5ccccc45)NC(=O)[C@H](CC(C)C)NC(=O)[C@H](CCCCN)NC(=O)[C@H](CSSC[C@H](NC(=O)[C@H]([C@@H](C)O)NC(=O)[C@H](Cc4c[nH]c5ccccc45)NC1=O)C(=O)N[C@@H](CC(=O)O)C(=O)N[C@@H](CO)C(=O)N[C@@H](CCCCN)C(=O)N[C@@H](CCCNC(=N)N)C(=O)N[C@@H](C)C(=O)N3)NC(=O)[C@H](CCCNC(=N)N)NC(=O)[C@H](CC(C)C)NC(=O)CNC(=O)[C@H](CCC(=O)O)NC2=O [compound 374] | 6.8 | 19 | 0.351 | 620 | – | – | – | – | – |
| CCCC[C@@H]1NC(=O)[C@H](Cc2c[nH]c3ccccc23)NC(=O)[C@H](CCCCN)NC(=O)[C@H](CCC(N)=O)NC(=O)[C@@H](NC(=O)[C@H](Cc2ccc(O)cc2)NC(=O)CCN)CSSC[C@@H]2NC(=O)[C@@H]3CSSC[C@@H](C(=O)N[C@@H](CCCNC(=N)N)C(=O)N[C@@H](CCCCN)C(=O)N[C@H](C(=O)N[C@H](C(N)=O)[C@@H](C)CC)[C@@H](C)CC)NC(=O)[C@H](Cc4c[nH]c5ccccc45)NC(=O)[C@H](CC(C)C)NC(=O)[C@H](CCCCN)NC(=O)[C@H](CSSC[C@H](NC(=O)[C@H]([C@@H](C)O)NC(=O)[C@H](Cc4c[nH]c5ccccc45)NC1=O)C(=O)N[C@@H](CC(=O)O)C(=O)N[C@@H](CO)C(=O)N[C@@H](CCCCN)C(=O)N[C@@H](CCCNC(=N)N)C(=O)N[C@@H](C)C(=O)N3)NC(=O)[C@H](CCCNC(=N)N)NC(=O)[C@H](CC(C)C)NC(=O)CNC(=O)[C@H](CCC(=O)O)NC2=O [compound 376] | 3.2 | 3 | 0.951 | 700 | – | – | – | – | – |
| CCCC[C@@H]1NC(=O)[C@H](Cc2c[nH]c3ccccc23)NC(=O)[C@H](CCCCN)NC(=O)[C@H](CCC(N)=O)NC(=O)[C@@H](NC(=O)[C@H](Cc2ccc(O)cc2)NC(=O)[C@@H](N)CCc2ccccc2)CSSC[C@@H]2NC(=O)[C@@H]3CSSC[C@@H](C(=O)N[C@@H](CCCNC(=N)N)C(=O)N[C@@H](CCCCN)C(=O)N[C@H](C(=O)N[C@H](C(N)=O)[C@@H](C)CC)[C@@H](C)CC)NC(=O)[C@H](Cc4c[nH]c5ccccc45)NC(=O)[C@H](CC(C)C)NC(=O)[C@H](CCCCN)NC(=O)[C@H](CSSC[C@H](NC(=O)[C@H]([C@@H](C)O)NC(=O)[C@H](Cc4c[nH]c5ccccc45)NC1=O)C(=O)N[C@@H](CC(=O)O)C(=O)N[C@@H](CO)C(=O)N[C@@H](CCCCN)C(=O)N[C@@H](CCCNC(=N)N)C(=O)N[C@@H](C)C(=O)N3)NC(=O)[C@H](CCCNC(=N)N)NC(=O)[C@H](CC(C)C)NC(=O)CNC(=O)[C@H](CCC(=O)O)NC2=O [compound 379] | 4.8 | 10 | 0.476 | 440 | – | – | – | – | – |
| C#CC[C@@H]1NC(=O)[C@@H]2CSSC[C@H](NC(=O)[C@@H](N)Cc3ccc(O)cc3)C(=O)N[C@@H](CCC(N)=O)C(=O)N[C@@H](CCCCN)C(=O)N[C@@H](Cc3c[nH]c4ccccc34)C(=O)N[C@@H](CCCC)C(=O)N[C@@H](Cc3c[nH]c4ccccc34)C(=O)N[C@@H]([C@@H](C)O)C(=O)N[C@H]3CSSC[C@H](NC(=O)[C@H](CCC(=O)O)NC(=O)[C@H](CC(C)C)NC(=O)CNC1=O)C(=O)N[C@@H](CCCCN)C(=O)N[C@@H](CC(C)C)C(=O)N[C@@H](Cc1c[nH]c4ccccc14)C(=O)N[C@H](C(=O)N[C@@H](CCCNC(=N)N)C(=O)N[C@@H](CCCCN)C(=O)N[C@@H](Cc1ccc(O)cc1)C(=O)N[C@H](C(N)=O)[C@@H](C)CC)CSSC[C@H](NC(=O)[C@H](C)NC(=O)[C@H](CCCNC(=N)N)NC(=O)[C@H](CCCCN)NC(=O)[C@H](CO)NC(=O)[C@H](CC(=O)O)NC3=O)C(=O)N2 [compound 317] | – | – | – | – | 614 | 3.8 | 3520 | – | – |
| CC[C@H](C)[C@H](NC(=O)[C@H](CCC(=O)O)NC(=O)[C@H](CCCCN)NC(=O)[C@H](CCCNC(=N)N)NC(=O)[C@@H]1CSSC[C@@H]2NC(=O)[C@H](C)NC(=O)[C@H](CCCNC(=N)N)NC(=O)[C@H](CCCCN)NC(=O)[C@H](CO)NC(=O)[C@H](CC(=O)O)NC(=O)[C@@H]3CSSC[C@H](NC(=O)[C@H](CCCNC(=N)N)NC(=O)[C@H](CC(C)C)NC(=O)CNC(=O)[C@H](CCC(=O)O)NC(=O)[C@H](CSSC[C@H](NC(=O)[C@@H](N)Cc4ccc(O)cc4)C(=O)N[C@@H](CCC(N)=O)C(=O)N[C@@H](CCCCN)C(=O)N[C@@H](Cc4c[nH]c5ccccc45)C(=O)N[C@@H](CCSC)C(=O)N[C@@H](Cc4c[nH]c5ccccc45)C(=O)N[C@@H]([C@@H](C)O)C(=O)N3)NC2=O)C(=O)N[C@@H](CCCCN)C(=O)N[C@@H](CC(C)C)C(=O)N[C@@H](Cc2c[nH]c3ccccc23)C(=O)N1)C(N)=O [compound 69] | 300 | 300 | 1 | 8800 | – | – | – | 8800 | – |
| C#CC[C@@H]1NC(=O)[C@@H]2CSSC[C@H](NC(=O)[C@@H](N)Cc3ccc(O)cc3)C(=O)N[C@@H](CCC(N)=O)C(=O)N[C@@H](CCCCN)C(=O)N[C@@H](Cc3c[nH]c4ccccc34)C(=O)N[C@@H](CCCC)C(=O)N[C@@H](Cc3c[nH]c4ccccc34)C(=O)N[C@@H]([C@@H](C)O)C(=O)N[C@H]3CSSC[C@H](NC(=O)[C@H](CCCNC(=N)N)NC(=O)[C@H](CC(C)C)NC(=O)CNC1=O)C(=O)N[C@@H](CCCCN)C(=O)N[C@@H](CC(C)C)C(=O)N[C@@H](Cc1c[nH]c4ccccc14)C(=O)N[C@H](C(=O)N[C@@H](CCCNC(=N)N)C(=O)N[C@@H](CCCCN)C(=O)N[C@@H](CCC(=O)O)C(=O)N[C@H](C(N)=O)[C@@H](C)CC)CSSC[C@H](NC(=O)[C@H](C)NC(=O)[C@H](CCCNC(=N)N)NC(=O)[C@H](CCCCN)NC(=O)[C@H](CO)NC(=O)[C@H](CC(=O)O)NC3=O)C(=O)N2 [compound 332] | – | – | – | – | 125 | 3.63 | 3080 | – | 34 |
| CCCC[C@@H]1NC(=O)[C@H](Cc2c[nH]c3ccccc23)NC(=O)[C@H](CCCCN)NC(=O)[C@H](CCC(N)=O)NC(=O)[C@@H](NC(=O)[C@@H](N)CCCCN=[N+]=[N-])CSSC[C@@H]2NC(=O)[C@@H]3CSSC[C@@H](C(=O)N[C@@H](CCCNC(=N)N)C(=O)N[C@@H](CCCCN)C(=O)N[C@H](C(=O)N[C@@H](Cc4c[nH]c5ccccc45)C(N)=O)[C@@H](C)CC)NC(=O)[C@H](Cc4c[nH]c5ccccc45)NC(=O)[C@H](CC(C)C)NC(=O)[C@H](CCCCN)NC(=O)[C@H](CSSC[C@H](NC(=O)[C@H]([C@@H](C)O)NC(=O)[C@H](Cc4c[nH]c5ccccc45)NC1=O)C(=O)N[C@@H](CC(=O)O)C(=O)N[C@@H](CO)C(=O)N[C@@H](CCCCN)C(=O)N[C@@H](CCCNC(=N)N)C(=O)N[C@@H](C)C(=O)N3)NC(=O)[C@H](CCC(=O)O)NC(=O)[C@H](CC(C)C)NC(=O)CNC(=O)[C@H](CCC(=O)O)NC2=O [compound 304] | – | – | – | – | 1740 | 3.86 | 2560 | – | – |
